Our source for the inhibition values is ChEMBL document CHEMBL4725389, “Novel Blocker of Onco SK3 Channels Derived from Scorpion Toxin Tamapin and Active against Migration of Cancer Cells” (ACS Med Chem Lett, 2020).

Activity calls are given as the source filed them. The calls are words filed in the database; no cut-off is given here. Positions of bridges follow the written chain, without caps; N, C: chain ends. Residues, ends and D or L forms follow the SMILES beside them. Where only a bound is given, the exact number is not on record here.

In test [1] the target is Small conductance calcium-activated potassium channel protein 2 (Rattus norvegicus) (UniProt P70604). As to the kind of experiment: Inhibition of recombinant rat SK2 expressed in HEK293 cells at 10 nM and holding potential at 0 mV and ramp voltage from -100 to 100 mV by whole cell patch clamp method relative to control. The class given is cell-based.
Test [2] addresses Small conductance calcium-activated potassium channel protein 3 (Homo sapiens, UniProt Q9UGI6). As to the kind of experiment: Inhibition of recombinant human SK3 expressed in HEK293T cells at 10 nM and holding potential at 0 mV and ramp voltage from -100 to 100 mV by whole cell patch clamp method relative to control. The class given is cell-based. The settings on record: HEK-293T.

Chain of Small conductance calcium-activated potassium channel protein 3 (Q9UGI6 whole entry): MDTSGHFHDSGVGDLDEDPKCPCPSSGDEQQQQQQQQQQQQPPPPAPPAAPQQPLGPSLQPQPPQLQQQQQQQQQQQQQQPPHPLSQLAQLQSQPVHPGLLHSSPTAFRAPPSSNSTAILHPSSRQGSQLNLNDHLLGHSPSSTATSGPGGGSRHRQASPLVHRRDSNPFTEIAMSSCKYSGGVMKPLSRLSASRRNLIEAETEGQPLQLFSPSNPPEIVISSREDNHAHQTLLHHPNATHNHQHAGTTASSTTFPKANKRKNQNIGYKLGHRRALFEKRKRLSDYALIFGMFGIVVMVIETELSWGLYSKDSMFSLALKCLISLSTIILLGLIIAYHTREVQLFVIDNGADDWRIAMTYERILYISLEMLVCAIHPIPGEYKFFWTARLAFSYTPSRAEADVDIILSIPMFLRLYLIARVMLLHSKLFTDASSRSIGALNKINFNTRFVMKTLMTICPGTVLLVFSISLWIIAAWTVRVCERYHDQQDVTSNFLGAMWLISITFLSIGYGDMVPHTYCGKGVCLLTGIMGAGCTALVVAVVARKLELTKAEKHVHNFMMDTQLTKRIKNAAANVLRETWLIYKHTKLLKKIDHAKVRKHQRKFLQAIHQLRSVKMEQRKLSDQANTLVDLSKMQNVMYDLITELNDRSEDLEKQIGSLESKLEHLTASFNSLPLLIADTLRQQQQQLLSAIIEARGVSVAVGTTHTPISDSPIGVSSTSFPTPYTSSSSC
Chain of Small conductance calcium-activated potassium channel protein 2 (Rattus norvegicus) (P70604 whole entry): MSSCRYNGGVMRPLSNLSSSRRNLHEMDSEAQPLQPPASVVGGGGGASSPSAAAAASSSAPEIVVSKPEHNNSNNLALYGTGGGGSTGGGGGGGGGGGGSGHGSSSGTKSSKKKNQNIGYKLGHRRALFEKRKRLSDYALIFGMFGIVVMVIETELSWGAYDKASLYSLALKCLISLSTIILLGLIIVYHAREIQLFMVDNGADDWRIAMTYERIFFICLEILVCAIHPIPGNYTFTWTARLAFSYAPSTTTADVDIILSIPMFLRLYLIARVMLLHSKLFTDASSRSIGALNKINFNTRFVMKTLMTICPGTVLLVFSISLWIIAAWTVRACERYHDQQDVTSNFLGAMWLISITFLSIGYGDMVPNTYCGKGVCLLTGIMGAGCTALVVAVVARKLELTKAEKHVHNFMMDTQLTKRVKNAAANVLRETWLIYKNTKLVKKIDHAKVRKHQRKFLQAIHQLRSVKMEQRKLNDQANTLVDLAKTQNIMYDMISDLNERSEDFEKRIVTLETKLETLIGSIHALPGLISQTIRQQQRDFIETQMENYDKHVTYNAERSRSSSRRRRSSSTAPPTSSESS

For the compound `CC[C@H](C)[C@@H]1NC(=O)[C@@H]2CSSC[C@H](NC(=O)[C@H](Cc3ccccc3)NC(=O)[C@H](C)N)C(=O)N[C@@H](CC(N)=O)C(=O)N[C@@H](CC(C)C)C(=O)N[C@@H](CCCNC(=N)N)C(=O)N[C@@H](CCCNC(=N)N)C(=O)N[C@H]3CSSC[C@H](NC(=O)[C@H](CCC(=O)O)NC(=O)[C@H](CCC(=O)O)NC(=O)CNC1=O)C(=O)N[C@@H](CCCCN)C(=O)N[C@H](C(=O)N[C@H](C(=O)N1CCC[C@H]1C(=O)N[C@@H](Cc1ccc(O)cc1)C(=O)O)C(C)C)CSSC[C@H](NC(=O)[C@H](CO)NC(=O)[C@H](CC(C)C)NC(=O)[C@H](CCC(=O)O)NC3=O)C(=O)N[C@@H](CCCNC(=N)N)C(=O)N[C@@H](CO)C(=O)N[C@@H](CC(C)C)C(=O)NCC(=O)N[C@@H](CC(C)C)C(=O)N[C@@H](CC(C)C)C(=O)NCC(=O)N[C@@H](C)C(=O)N2` (H-AFCNLRRCELSCRSLGLLGACIGEECKCVPY-OH; disulfide 3-21, 8-26, 12-28), the inhibition in test [1] is > 85%. Also, the inhibition result in test [2] was “inactive”.
Consider `CC[C@H](C)[C@@H]1NC(=O)[C@@H]2CSSC[C@H](NC(=O)[C@H](Cc3ccccc3)NC(=O)[C@H](C)N)C(=O)N[C@@H](CC(N)=O)C(=O)N[C@@H](CC(C)C)C(=O)N[C@@H](CCCNC(=N)N)C(=O)N[C@@H](CCCNC(=N)N)C(=O)N[C@H]3CSSC[C@H](NC(=O)[C@H](CCC(=O)O)NC(=O)[C@H](CCC(=O)O)NC(=O)CNC1=O)C(=O)N[C@@H](CCCCN)C(=O)N[C@H](C(=O)N[C@H](C(=O)N1CCC[C@H]1C(=O)N[C@@H](Cc1ccc(O)cc1)C(=O)O)C(C)C)CSSC[C@H](NC(=O)[C@H](CO)NC(=O)[C@H](CC(C)C)NC(=O)[C@H](CCC(=O)O)NC3=O)C(=O)N[C@@H](CCCNC(=N)N)C(=O)N[C@@H](CO)C(=O)N[C@@H](CC(C)C)C(=O)NCC(=O)N[C@@H](CC(C)C)C(=O)N[C@@H](CC(C)C)C(=O)NCC(=O)N[C@@H](CCC(=O)O)C(=O)N2` (H-AFCNLRRCELSCRSLGLLGECIGEECKCVPY-OH; disulfide 3-21, 8-26, 12-28), for which the inhibition in test [1] is > 85%; in test [2] it was < 39%.
On the same counts, the results for `CC[C@H](C)[C@@H]1NC(=O)[C@@H]2CSSC[C@H](NC(=O)[C@H](Cc3ccccc3)NC(=O)[C@H](C)N)C(=O)N[C@@H](CC(N)=O)C(=O)N[C@@H](CC(C)C)C(=O)N[C@@H](CCCNC(=N)N)C(=O)N[C@@H](CCCNC(=N)N)C(=O)N[C@H]3CSSC[C@H](NC(=O)[C@H](C)NC(=O)[C@H](CCC(=O)O)NC(=O)CNC1=O)C(=O)N[C@@H](CCCCN)C(=O)N[C@H](C(=O)N[C@H](C(=O)N1CCC[C@H]1C(=O)N[C@@H](Cc1ccc(O)cc1)C(=O)O)C(C)C)CSSC[C@H](NC(=O)[C@H](CO)NC(=O)[C@H](CC(C)C)NC(=O)[C@H](CCC(=O)O)NC3=O)C(=O)N[C@@H](CCCNC(=N)N)C(=O)N[C@@H](CO)C(=O)N[C@@H](CC(C)C)C(=O)NCC(=O)N[C@@H](CC(C)C)C(=O)N[C@@H](CC(C)C)C(=O)NCC(=O)N[C@@H](CCCCN)C(=O)N2` (H-AFCNLRRCELSCRSLGLLGKCIGEACKCVPY-OH; disulfide 3-21, 8-26, 12-28) are < 39% and 40%.
For `CC[C@H](C)[C@@H]1NC(=O)[C@@H]2CSSC[C@H](NC(=O)[C@H](Cc3ccccc3)NC(=O)[C@H](C)N)C(=O)N[C@@H](CC(N)=O)C(=O)N[C@@H](CC(C)C)C(=O)N[C@@H](CCCNC(=N)N)C(=O)N[C@@H](CCCNC(=N)N)C(=O)N[C@H]3CSSC[C@H](NC(=O)[C@H](CCC(=O)O)NC(=O)[C@H](CCC(=O)O)NC(=O)CNC1=O)C(=O)N[C@@H](C)C(=O)N[C@H](C(=O)N[C@H](C(=O)N1CCC[C@H]1C(=O)N[C@@H](Cc1ccc(O)cc1)C(=O)O)C(C)C)CSSC[C@H](NC(=O)[C@H](CO)NC(=O)[C@H](CC(C)C)NC(=O)[C@H](CCC(=O)O)NC3=O)C(=O)N[C@@H](CCCNC(=N)N)C(=O)N[C@@H](CO)C(=O)N[C@@H](CC(C)C)C(=O)NCC(=O)N[C@@H](CC(C)C)C(=O)N[C@@H](CC(C)C)C(=O)NCC(=O)N[C@@H](CCCCN)C(=O)N2` (H-AFCNLRRCELSCRSLGLLGKCIGEECACVPY-OH; disulfide 3-21, 8-26, 12-28) the same measures were < 39% and 40%.
For `CC[C@H](C)[C@@H]1NC(=O)[C@@H]2CSSC[C@H](NC(=O)[C@H](Cc3ccccc3)NC(=O)[C@H](C)N)C(=O)N[C@@H](CC(N)=O)C(=O)N[C@@H](CC(C)C)C(=O)N[C@@H](CCCNC(=N)N)C(=O)N[C@@H](CCCNC(=N)N)C(=O)N[C@H]3CSSC[C@H](NC(=O)[C@H](CCC(=O)O)NC(=O)[C@H](CCC(=O)O)NC(=O)CNC1=O)C(=O)N[C@@H](CCC(=O)O)C(=O)N[C@H](C(=O)N[C@H](C(=O)N1CCC[C@H]1C(=O)N[C@@H](Cc1ccc(O)cc1)C(=O)O)C(C)C)CSSC[C@H](NC(=O)[C@H](CO)NC(=O)[C@H](CC(C)C)NC(=O)[C@H](CCC(=O)O)NC3=O)C(=O)N[C@@H](CCCNC(=N)N)C(=O)N[C@@H](CO)C(=O)N[C@@H](CC(C)C)C(=O)NCC(=O)N[C@@H](CC(C)C)C(=O)N[C@@H](CC(C)C)C(=O)NCC(=O)N[C@@H](CCCCN)C(=O)N2` (H-AFCNLRRCELSCRSLGLLGKCIGEECECVPY-OH; disulfide 3-21, 8-26, 12-28) the same measures were < 39% and 40%.
For `CC[C@H](C)[C@@H]1NC(=O)[C@@H]2CSSC[C@H](NC(=O)[C@H](Cc3ccccc3)NC(=O)[C@H](C)N)C(=O)N[C@@H](CC(N)=O)C(=O)N[C@@H](CC(C)C)C(=O)N[C@@H](CCCNC(=N)N)C(=O)N[C@@H](CCCNC(=N)N)C(=O)N[C@H]3CSSC[C@H](NC(=O)[C@H](CCC(=O)O)NC(=O)[C@H](CCC(=O)O)NC(=O)CNC1=O)C(=O)N[C@@H](CCCCN)C(=O)N[C@H](C(=O)N[C@H](C(=O)N1CCC[C@H]1C(=O)N[C@@H](C)C(=O)O)C(C)C)CSSC[C@H](NC(=O)[C@H](CO)NC(=O)[C@H](CC(C)C)NC(=O)[C@H](CCC(=O)O)NC3=O)C(=O)N[C@@H](CCCNC(=N)N)C(=O)N[C@@H](CO)C(=O)N[C@@H](CC(C)C)C(=O)NCC(=O)N[C@@H](CC(C)C)C(=O)N[C@@H](CC(C)C)C(=O)NCC(=O)N[C@@H](CCCCN)C(=O)N2` (H-AFCNLRRCELSCRSLGLLGKCIGEECKCVPA-OH; disulfide 3-21, 8-26, 12-28), the figures for the inhibition in test [1] and in test [2] were 40% and < 39%, respectively.
For `CC[C@H](C)[C@@H]1NC(=O)[C@@H]2CSSC[C@H](NC(=O)[C@H](Cc3ccccc3)NC(=O)[C@H](C)N)C(=O)N[C@@H](CC(N)=O)C(=O)N[C@@H](CC(C)C)C(=O)N[C@@H](CCCNC(=N)N)C(=O)N[C@@H](CCCNC(=N)N)C(=O)N[C@H]3CSSC[C@H](NC(=O)[C@H](CCC(=O)O)NC(=O)[C@H](CCC(=O)O)NC(=O)CNC1=O)C(=O)N[C@@H](CCCCN)C(=O)N[C@H](C(=O)N[C@H](C(=O)N1CCC[C@H]1C(=O)N[C@@H](Cc1c[nH]cn1)C(=O)O)C(C)C)CSSC[C@H](NC(=O)[C@H](CO)NC(=O)[C@H](CC(C)C)NC(=O)[C@H](CCC(=O)O)NC3=O)C(=O)N[C@@H](CCCNC(=N)N)C(=O)N[C@@H](CO)C(=O)N[C@@H](CC(C)C)C(=O)NCC(=O)N[C@@H](CC(C)C)C(=O)N[C@@H](CC(C)C)C(=O)NCC(=O)N[C@@H](CCCCN)C(=O)N2` (H-AFCNLRRCELSCRSLGLLGKCIGEECKCVPH-OH; disulfide 3-21, 8-26, 12-28) the same measures were 40% and < 39%.
